# How the values were obtained:
# [1] = Selectivity index, ratio of IC50 for equine BChE to IC50 for bovine AChE
# Acetylcholinesterase [2] = biological target: T1, Acetylcholinesterase (Bos taurus, UniProt P23795)
# T1 sequence (P23795 whole entry): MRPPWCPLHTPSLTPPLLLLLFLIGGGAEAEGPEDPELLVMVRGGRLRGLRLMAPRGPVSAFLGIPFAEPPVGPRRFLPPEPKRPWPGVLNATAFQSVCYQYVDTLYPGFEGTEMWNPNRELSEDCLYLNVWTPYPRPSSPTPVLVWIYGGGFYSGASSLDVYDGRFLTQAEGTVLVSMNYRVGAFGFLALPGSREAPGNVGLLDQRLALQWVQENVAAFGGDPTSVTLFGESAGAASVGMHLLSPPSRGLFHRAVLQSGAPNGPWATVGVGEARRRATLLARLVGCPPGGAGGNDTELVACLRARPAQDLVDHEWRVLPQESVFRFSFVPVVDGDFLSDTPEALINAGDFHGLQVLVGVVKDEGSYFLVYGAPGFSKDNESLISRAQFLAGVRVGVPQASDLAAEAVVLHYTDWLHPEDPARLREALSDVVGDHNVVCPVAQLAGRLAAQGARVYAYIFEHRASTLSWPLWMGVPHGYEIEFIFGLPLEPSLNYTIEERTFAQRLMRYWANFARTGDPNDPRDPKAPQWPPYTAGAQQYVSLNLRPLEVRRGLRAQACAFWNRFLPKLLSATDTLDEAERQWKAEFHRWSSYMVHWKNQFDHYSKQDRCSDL
# Description: Inhibition of bovine AChE after 20 mins using acetylthiocholine iodide as a substrate by Ellman's assay
# Butyrylcholinesterase = Butyrylcholinesterase (Equus caballus, UniProt Q9N1N9)
# Chain of Butyrylcholinesterase (Q9N1N9 whole entry): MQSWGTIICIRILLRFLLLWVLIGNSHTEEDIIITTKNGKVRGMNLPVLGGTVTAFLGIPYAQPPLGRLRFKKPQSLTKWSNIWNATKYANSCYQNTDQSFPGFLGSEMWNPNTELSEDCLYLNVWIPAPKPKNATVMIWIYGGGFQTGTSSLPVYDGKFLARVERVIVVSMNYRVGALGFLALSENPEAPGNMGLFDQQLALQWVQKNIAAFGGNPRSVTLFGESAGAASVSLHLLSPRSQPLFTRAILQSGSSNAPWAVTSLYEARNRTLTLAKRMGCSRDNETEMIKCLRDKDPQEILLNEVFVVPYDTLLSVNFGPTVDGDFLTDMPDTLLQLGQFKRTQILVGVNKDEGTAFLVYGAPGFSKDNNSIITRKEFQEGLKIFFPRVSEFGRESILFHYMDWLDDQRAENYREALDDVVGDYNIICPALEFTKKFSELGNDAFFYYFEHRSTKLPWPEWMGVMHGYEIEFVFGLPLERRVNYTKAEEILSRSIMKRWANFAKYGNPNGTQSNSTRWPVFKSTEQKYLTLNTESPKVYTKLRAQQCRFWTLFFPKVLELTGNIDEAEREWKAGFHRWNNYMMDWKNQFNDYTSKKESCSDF
# Description: Inhibition of equine BChE after 20 mins using butyrylthiocholine iodide as a substrate by Ellman's assay
# Acetylcholinesterase [3] = biological target: Acetylcholinesterase (Homo sapiens, UniProt P22303)
# Chain of Acetylcholinesterase (Homo sapiens, UniProt P22303) (P22303 whole entry): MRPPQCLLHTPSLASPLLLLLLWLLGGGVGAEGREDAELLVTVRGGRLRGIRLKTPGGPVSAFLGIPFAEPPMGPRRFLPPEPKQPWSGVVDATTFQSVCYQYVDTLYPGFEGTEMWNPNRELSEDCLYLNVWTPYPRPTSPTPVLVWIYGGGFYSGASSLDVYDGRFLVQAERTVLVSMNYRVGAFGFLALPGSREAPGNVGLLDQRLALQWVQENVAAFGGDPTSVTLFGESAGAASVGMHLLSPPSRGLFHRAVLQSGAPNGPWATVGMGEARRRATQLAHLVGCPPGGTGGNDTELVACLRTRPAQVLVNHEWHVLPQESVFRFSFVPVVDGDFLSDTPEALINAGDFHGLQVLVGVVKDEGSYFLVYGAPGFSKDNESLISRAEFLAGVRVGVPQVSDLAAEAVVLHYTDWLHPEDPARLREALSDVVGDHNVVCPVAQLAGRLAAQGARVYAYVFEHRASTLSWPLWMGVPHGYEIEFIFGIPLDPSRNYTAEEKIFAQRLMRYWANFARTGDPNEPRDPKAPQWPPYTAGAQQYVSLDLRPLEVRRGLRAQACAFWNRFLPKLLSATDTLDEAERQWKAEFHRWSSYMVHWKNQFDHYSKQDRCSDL
# Description: Inhibition of human recombinant AChE after 20 mins using acetylthiocholine iodide as a substrate by Ellman's assay
# Cholinesterase = Cholinesterase (Homo sapiens, UniProt P06276)
# Chain of Cholinesterase (P06276 whole entry): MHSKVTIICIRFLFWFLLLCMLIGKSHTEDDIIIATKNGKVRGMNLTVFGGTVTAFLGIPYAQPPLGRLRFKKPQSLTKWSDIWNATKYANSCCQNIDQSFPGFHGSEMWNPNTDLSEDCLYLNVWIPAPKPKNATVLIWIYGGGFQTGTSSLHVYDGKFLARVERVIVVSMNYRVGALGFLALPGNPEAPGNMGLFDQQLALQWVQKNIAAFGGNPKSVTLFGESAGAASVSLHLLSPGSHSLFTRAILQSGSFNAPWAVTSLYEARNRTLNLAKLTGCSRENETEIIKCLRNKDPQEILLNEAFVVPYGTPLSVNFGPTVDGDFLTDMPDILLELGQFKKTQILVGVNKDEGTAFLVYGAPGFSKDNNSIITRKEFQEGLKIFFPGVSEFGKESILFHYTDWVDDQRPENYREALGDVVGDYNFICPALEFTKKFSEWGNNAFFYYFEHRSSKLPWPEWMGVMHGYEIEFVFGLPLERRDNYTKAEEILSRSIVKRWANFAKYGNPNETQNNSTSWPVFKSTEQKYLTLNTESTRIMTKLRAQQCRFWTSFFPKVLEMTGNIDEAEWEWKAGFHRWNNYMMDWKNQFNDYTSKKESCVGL
# Description: Inhibition of human BChE after 20 mins using butyrylthiocholine iodide as a substrate by Ellman's assay
# [4] = biological target: T2, Acetylcholinesterase (Bos taurus) (UniProt P23795); test: Inhibition of bovine AChE at 10 uM after 20 mins using acetylthiocholine iodide as a substrate by Ellman's assay
# T2 sequence (whole entry): T1 sequence (P23795 whole entry)
Structure (SMILES),Ratio IC50 [1],IC50 (Acetylcholinesterase [2]) [nM],IC50 (Butyrylcholinesterase) [nM],IC50 (Acetylcholinesterase [3]) [nM],IC50 (Cholinesterase) [nM],inhibition [4] [%]
c1cc(-c2ccc(C[n+]3ccc(N4CCCCC4)cc3)cc2)ccc1C[n+]1ccc(N2CCCCC2)cc1,2.7,160,430,–,–,–
c1ccc2c(c1)CCN(c1cc[n+](Cc3ccc(C[n+]4ccc(N5CCc6ccccc6C5)cc4)cc3)cc1)C2,2.6,126,327,–,–,–
OC1C[N+]2(Cc3ccc(CCc4ccc(C[N+]56CCC(CC5)C(O)C6)cc4)cc3)CCC1CC2 (centres undefined),22,97,2090,–,–,–
c1cc(C[n+]2ccc(N3CCCC3)cc2)cc(-c2cccc(C[n+]3ccc(N4CCCC4)cc3)c2)c1,13,39,518,–,–,–
CN(c1cc[n+](Cc2cc(C[n+]3ccc(N(C)c4cc(Cl)cc(Cl)c4)cc3)cc(C[n+]3ccc(N(C)c4cc(Cl)cc(Cl)c4)cc3)c2)cc1)c1cc(Cl)cc(Cl)c1,0.38,1770,679,–,–,–
CN(C)c1cc[n+](Cc2ccc(C[n+]3ccc(N(C)C)cc3)cc2)cc1,7.6,1310,–,–,–,–
c1cc(C[n+]2ccc(N3CCc4ccccc4C3)cc2)cc(C[n+]2ccc(N3CCc4ccccc4C3)cc2)c1,0.68,281,190,–,–,–
CN(c1ccc(Cl)cc1)c1cc[n+](Cc2cccc(-c3cccc(C[n+]4ccc(N(C)c5ccc(Cl)cc5)cc4)c3)c2)cc1,0.28,1780,496,–,–,–
c1cc(C[n+]2ccc(N3CCCCC3)cc2)ccc1CCc1ccc(C[n+]2ccc(N3CCCCC3)cc2)cc1,1.6,79,130,–,–,–
COc1cc2c(cc1OC)CN(c1cc[n+](Cc3ccc(C[n+]4ccc(N5CCc6cc(OC)c(OC)cc6C5)cc4)cc3)cc1)CC2,0.7,1950,1370,–,–,–
OC1C[N+]2(Cc3ccc(/C=C/c4ccc(C[N+]56CCC(CC5)C(O)C6)cc4)cc3)CCC1CC2 (centres undefined),38,141,5340,–,–,–
COc1cc2c(cc1OC)CN(c1cc[n+](Cc3ccc(-c4ccc(C[n+]5ccc(N6CCc7cc(OC)c(OC)cc7C6)cc5)cc4)cc3)cc1)CC2,16,94,1530,–,–,–
c1cc(C[n+]2ccc(N3CCCCC3)cc2)ccc1C[n+]1ccc(N2CCCCC2)cc1,9.5,72,682,75,610,–
CN(C)c1cc[n+](C[C@@H]2C[C@H]2C[n+]2ccc(N(C)C)cc2)cc1 (relative stereo),–,8780,–,–,–,–
CN(C)c1cc[n+](Cc2cccc(C[n+]3ccc(N(C)C)cc3)c2)cc1,19,390,7560,–,–,–
CN(c1ccccc1)c1cc[n+](Cc2cccc(C[n+]3ccc(N(C)c4ccccc4)cc3)c2)cc1,0.79,1150,910,–,–,–
Cc1ccc(C[n+]2ccc(N3CCCC3)cc2)cc1,–,–,–,–,–,52
COc1cc2c(cc1OC)CN(c1cc[n+](Cc3cccc(C[n+]4ccc(N5CCc6cc(OC)c(OC)cc6C5)cc4)c3)cc1)CC2,0.42,2100,890,–,–,–
c1cc(C[n+]2ccc(N3CCCCCC3)cc2)ccc1CCc1ccc(C[n+]2ccc(N3CCCCCC3)cc2)cc1,3.2,86,274,–,–,–
c1cc(C[n+]2ccc(N3CCOCC3)cc2)ccc1CCc1ccc(C[n+]2ccc(N3CCOCC3)cc2)cc1,1.7,2670,4480,–,–,–
c1cc(C[n+]2ccc(C3CCCCC3)cc2)cc(-c2cccc(C[n+]3ccc(C4CCCCC4)cc3)c2)c1,8.2,134,1090,–,–,–
CN(c1ccc(Cl)cc1)c1cc[n+](Cc2ccc(-c3ccc(C[n+]4ccc(N(C)c5ccc(Cl)cc5)cc4)cc3)cc2)cc1,0.22,3070,683,–,–,–
c1cc(C[n+]2ccc(N3CCCCC3)cc2)ccc1CCCc1ccc(C[n+]2ccc(N3CCCCC3)cc2)cc1,0.91,163,149,–,–,–
c1ccc(-c2cc[n+](Cc3cccc(-c4cccc(C[n+]5ccc(-c6ccccc6)cc5)c4)c3)cc2)cc1,1.4,553,797,–,–,–
Cc1c2c(C)c3c(C)c1C[n+]1ccc(cc1)NCc1cc(cc(c1)CNc1cc[n+](cc1)C3)CNc1cc[n+](cc1)C2,0.14,3680,516,–,–,–
c1cc(C[n+]2ccc(N3CCCCC3)cc2)cc(-c2cccc(C[n+]3ccc(N4CCCCC4)cc3)c2)c1,6.9,26,179,60,330,–

Structure (SMILES),Ratio IC50 [1],IC50 (Acetylcholinesterase [2]) [nM],IC50 (Butyrylcholinesterase) [nM],IC50 (Acetylcholinesterase [3]) [nM],IC50 (Cholinesterase) [nM],inhibition [4] [%]
c1cc(C[N+]23CCC(CC2)CC3)cc(-c2cccc(C[N+]34CCC(CC3)CC4)c2)c1,0.081,1100,89,620,36,–
c1ccc2c(c1)CCN(c1cc[n+](Cc3ccc(-c4ccc(C[n+]5ccc(N6CCc7ccccc7C6)cc5)cc4)cc3)cc1)C2,0.92,346,318,–,–,–
CN(C)c1cc[n+](Cc2ccc(CCCCc3ccc(C[n+]4ccc(N(C)C)cc4)cc3)cc2)cc1,1.5,252,372,–,–,–
c1cc(C[n+]2ccc(NC3CCCCC3)cc2)ccc1CCCCc1ccc(C[n+]2ccc(NC3CCCCC3)cc2)cc1,2.1,100,206,–,–,–
c1cc(C[n+]2ccc(N3CCCC3)cc2)ccc1CCCCc1ccc(C[n+]2ccc(N3CCCC3)cc2)cc1,6.5,104,671,–,–,–
c1ccc(C[n+]2ccc(N3CCCC3)cc2)cc1,–,5530,–,–,–,–
c1cc(C[n+]2ccc(N3CCCC3)cc2)ccc1CCc1ccc(C[n+]2ccc(N3CCCC3)cc2)cc1,1.9,385,735,–,–,–
CN(c1cc[n+](Cc2ccc(C[n+]3ccc(N(C)c4cc(Cl)cc(Cl)c4)cc3)cc2)cc1)c1cc(Cl)cc(Cl)c1,0.31,5200,1600,–,–,–
c1cc(C[n+]2ccc(N3CCCC3)cc2)ccc1CCCc1ccc(C[n+]2ccc(N3CCCC3)cc2)cc1,3.6,81,292,–,–,–
Nc1cc[n+](Cc2ccc(CCc3ccc(C[n+]4ccc(N)c5ccccc54)cc3)cc2)c2ccccc12,0.92,672,620,–,–,–
c1cc(C[n+]2ccc(N3CCCC3)cc2)ccc1Cc1ccc(C[n+]2ccc(N3CCCC3)cc2)cc1,3.1,183,576,–,–,–
c1cc2cc(c1)C[n+]1ccc(cc1)NCc1ccc(cc1)CNc1cc[n+](cc1)C2,0.22,3900,850,–,–,–
CN(C)c1cc[n+](Cc2cc(C[n+]3ccc(N(C)C)cc3)cc(C[n+]3ccc(N(C)C)cc3)c2)cc1,3.6,2750,–,–,–,–
Cc1c[n+](Cc2cccc(-c3cccc(C[n+]4cc(C)c(N)c5ccccc54)c3)c2)c2ccccc2c1N,0.12,497,59,–,–,–
C(=C\c1ccc(C[n+]2ccc(N3CCCCC3)cc2)cc1)/c1ccc(C[n+]2ccc(N3CCCCC3)cc2)cc1,0.42,582,247,–,–,–
c1cc(-c2ccc(C[n+]3ccc(N4CCCC4)cc3)cc2)ccc1C[n+]1ccc(N2CCCC2)cc1,14,90,1270,–,–,–
CN(C)c1cc[n+](Cc2ccc(CCc3ccc(C[n+]4ccc(N(C)C)cc4)cc3)cc2)cc1,2.2,628,1360,–,–,–
COc1cc2c(cc1OC)CN(c1cc[n+](Cc3cccc(-c4cccc(C[n+]5ccc(N6CCc7cc(OC)c(OC)cc7C6)cc5)c4)c3)cc1)CC2,2.3,519,1170,–,–,–
CN(c1cc[n+](Cc2ccc(-c3ccc(C[n+]4ccc(N(C)c5cc(Cl)cc(Cl)c5)cc4)cc3)cc2)cc1)c1cc(Cl)cc(Cl)c1,0.19,2870,550,–,–,–
c1cc(C[n+]2ccc(N3CCCCC3)cc2)ccc1Cc1ccc(C[n+]2ccc(N3CCCCC3)cc2)cc1,0.75,83,62,–,–,–
c1cc(C[n+]2ccc(N3CCCCCC3)cc2)ccc1CCCc1ccc(C[n+]2ccc(N3CCCCCC3)cc2)cc1,0.81,202,163,–,–,–
c1cc(C[n+]2ccc(N3CCCCC3)cc2)cc(C[n+]2ccc(N3CCCCC3)cc2)c1,2.9,114,335,–,–,–
c1cc(C[n+]2ccc(N3CCCC3)cc2)ccc1C[n+]1ccc(N2CCCC2)cc1,3.9,336,1300,–,–,–
OC1C[N+]2(Cc3cccc(-c4cccc(C[N+]56CCC(CC5)C(O)C6)c4)c3)CCC1CC2 (centres undefined),0.11,–,1150,–,–,55.8
Cc1ccc(C[n+]2ccc(N)c3ccccc32)cc1,–,–,–,–,–,34

# Source: ChEMBL document CHEMBL1770085, “Homodimeric bis-quaternary heterocyclic ammonium salts as potent acetyl- and butyrylcholinesterase inhibitors: a systematic investigation of the influence of linker and cationic heads over affinity and selectivity” (J Med Chem, 2011)
